Laboratory results taken from patent US10538487B2, “Sulfonylureas and related compounds and use of same” (priority 2015, dated 2020).
Like-named read-outs stand apart in the source and are kept apart here.

Molecular target: NLRP3 inflammasome (Homo sapiens, UniProt Q96P20)
Experiment: Inhibition of IL-1β release, NLRP3 inflammasome activation assay in HMDM
Format: cell-based
Description: The following assays can be used to determine inhibitory activity of test compounds on the NLRP3 inflammasome using common stimuli such as adenosine triphosphate, nigericin, LeuLeu-OMe or monosodium urate crystals (MSU).
To generate HMDM, human monocytes are isolated from buffy coat blood using Ficoll-Plaque Plus (GE Healthcare) and density centrifugation. CD14^+ cell selection is performed using MACS magnetic beads (Miltenyl Biotec).
HMDM are seeded at 1×10^5/ml. […] Medium is removed and replaced with serum free medium (SFM) containing test compound 30 min prior to NLRP3 stimulation. […] ATP can be sourced from Sigma Aldrich, nigericin and MSU from Invivogen and LeuLeu-Ome from Chem-Impex International.
For ELISA and cell death assays cells are seeded in 96 well plates. Supernatants are removed and analysed using ELISA kits according to the manufacturer's instructions (DuoSet® R&D Systems, ReadySetGo!® eBioscience, BD OptEIA™, or Perkin Elmer AlphaLISA®). Cell death is assessed by measurement of LDH release relative to a 100% cell lysis control using the CytoTox96® non-radioactive cytotoxicity assay (Promega).

[1] = inhibition of IL-1β release, class symbols, read-out: Avg. IL-1β IC50 HMDM

Chain of NLRP3 inflammasome (Q96P20 whole entry): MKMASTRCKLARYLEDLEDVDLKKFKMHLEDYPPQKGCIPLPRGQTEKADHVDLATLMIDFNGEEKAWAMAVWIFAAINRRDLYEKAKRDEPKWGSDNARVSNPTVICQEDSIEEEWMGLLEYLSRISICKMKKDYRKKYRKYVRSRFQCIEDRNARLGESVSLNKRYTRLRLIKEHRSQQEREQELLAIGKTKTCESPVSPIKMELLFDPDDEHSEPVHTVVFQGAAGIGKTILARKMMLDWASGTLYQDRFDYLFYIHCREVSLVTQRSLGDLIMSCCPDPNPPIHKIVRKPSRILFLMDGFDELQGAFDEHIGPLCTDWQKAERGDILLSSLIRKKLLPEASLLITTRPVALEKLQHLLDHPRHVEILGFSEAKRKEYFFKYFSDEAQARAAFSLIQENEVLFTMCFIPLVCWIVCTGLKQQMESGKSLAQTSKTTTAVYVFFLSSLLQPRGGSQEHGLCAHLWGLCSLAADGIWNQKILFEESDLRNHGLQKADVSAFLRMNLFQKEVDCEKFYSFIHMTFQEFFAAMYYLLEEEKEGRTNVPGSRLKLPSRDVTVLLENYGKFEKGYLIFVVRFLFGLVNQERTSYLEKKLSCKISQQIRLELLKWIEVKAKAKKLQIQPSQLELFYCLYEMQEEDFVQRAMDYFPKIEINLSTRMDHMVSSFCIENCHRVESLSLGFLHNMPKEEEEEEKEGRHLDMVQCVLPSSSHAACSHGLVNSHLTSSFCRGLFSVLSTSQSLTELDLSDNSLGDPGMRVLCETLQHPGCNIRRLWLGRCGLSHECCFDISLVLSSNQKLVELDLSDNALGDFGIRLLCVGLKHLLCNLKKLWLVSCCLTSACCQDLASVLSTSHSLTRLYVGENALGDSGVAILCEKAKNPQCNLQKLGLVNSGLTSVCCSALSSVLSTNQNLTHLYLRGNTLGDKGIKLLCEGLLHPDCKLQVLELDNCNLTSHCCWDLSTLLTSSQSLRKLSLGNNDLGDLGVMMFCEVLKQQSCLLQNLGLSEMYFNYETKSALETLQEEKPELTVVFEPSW

SMILES	IC50 [1] [µM]	IC50 (commercial compounds (Table 9), read-out: HMDM IC50 vs NLRP3) [µM]
O=C(Nc1c2c(cc3c1CCC3)CCC2)NS(=O)(=O)c1ccn(C2CCCCC2)n1 [1-cyclohexyl-N-((1,2,3,5,6,7-hexahydro-s-indacen-4-yl)carbamoyl)-1H-pyrazole-3-sulfonamide]	< 1	
Cc1oc(S(=O)(=O)NC(=O)Nc2c(C(C)C)cccc2C(C)C)cc1C(C)(C)O [N-((2,6-diisopropylphenyl)carbamoyl)-4-(2-hydroxypropan-2-yl)-5-methylfuran-2-sulfonamide]	< 0.1	
Cc1cnc(C(=O)NCCc2ccc(S(=O)(=O)NC(=O)Nc3c4c(cc5c3CCC5)CCC4)cc2)cn1 [N-(4-(N-((1,2,3,5,6,7-hexahydro-s-indacen-4-yl)carbamoyl)sulfamoyl)phenethyl)-5-methylpyrazine-2-carboxamide]	< 1	
O=C(Nc1c2c(cc3c1CCC3)CCC2)NS(=O)(=O)c1cnc2c(c1)CCC2 [N-((1,2,3,5,6,7-hexahydro-s-indacen-4-yl)carbamoyl)-6,7-dihydro-5H-cyclopenta[b]pyridine-3-sulfonamide]	< 0.1	
[2H]C([2H])([2H])C(O)(c1cc(S(=O)(=O)NC(=O)Nc2c3c(cc4c2CCC4)CCC3)oc1C)C([2H])([2H])[2H] [N-((1,2,3,5,6,7-hexahydro-s-indacen-4-yl)carbamoyl)-4-(2-hydroxypropan-2-yl-1,1,1,3,3,3-d6)-5-methylfuran-2-sulfonamide]	< 0.1	
CC(C)c1cc(Cl)cc(C(C)C)c1NC(=O)NS(=O)(=O)c1cc(C(C)(C)O)n(-c2ccccc2)n1 [sodium ((4-chloro-2,6-diisopropylphenyl)carbamoyl)((5-(2-hydroxypropan-2-yl)-1-phenyl-1H-pyrazol-3-yl)sulfonyl)amide]	< 0.1	
CC(C)n1nc(S(=O)(=O)NC(=O)Nc2c3c(cc4c2CCC4)CCC3)cc1C(F)(F)F [N-((1,2,3,5,6,7-hexahydro-s-indacen-4-yl)carbamoyl)-1-isopropyl-5-(trifluoromethyl)-1H-pyrazole-3-sulfonamide]	< 1	
O=C(Nc1c2c(cc3c1CCC3)CCC2)NS(=O)(=O)c1cc2ccccc2o1 [N-((1,2,3,5,6,7-hexahydro-s-indacen-4-yl)carbamoyl)benzofuran-2-sulfonamide]	< 1	
O=C(Nc1c2c(cc3c1CCC3)CCC2)NS(=O)(=O)c1ccn(Cc2ccccc2)n1 [1-benzyl-N-((1,2,3,5,6,7-hexahydro-s-indacen-4-yl)carbamoyl)-1H-pyrazole-3-sulfonamide]	< 10	
C#CCNC(=O)CCc1ccc(S(=O)(=O)NC(=O)Nc2c3c(cc4c2CCC4)CCC3)cc1 [3-(4-(N-((1,2,3,5,6,7-hexahydro-s-indacen-4-yl)carbamoyl)sulfamoyl)phenyl)-N-(prop-2-yn-1-yl)propanamide]	< 0.1	
CC(c1ccccc1)n1ccc(S(=O)(=O)NC(=O)Nc2c3c(cc4c2CCC4)CCC3)n1 (stereo not drawn) [N-((1,2,3,5,6,7-hexahydro-s-indacen-4-yl)carbamoyl)-1-(1-phenylethyl)-1H-pyrazole-3-sulfonamide]	< 1	
Cc1cc(C2CC2)nc(NC(=O)NS(=O)(=O)c2cc(C(C)(C)O)co2)n1 [N-((4-cyclopropyl-6-methylpyrimidin-2-yl)carbamoyl)-4-(2-hydroxypropan-2-yl)furan-2-sulfonamide]	< 1	
O=C(CCc1cn(CCCNc2ccc([N+](=O)[O-])c3nonc23)nn1)Nc1cccc(S(=O)(=O)NC(=O)Nc2c3c(cc4c2CCC4)CCC3)c1 [N-(3-(N-((1,2,3,5,6,7-hexahydro-s-indacen-4-yl)carbamoyl)sulfamoyl)phenyl)-3-(1-(3-((7-nitrobenzo[c][1,2,5]oxadiazol-4-yl)amino)propyl)-1H-1,2,3-triazol-4-yl)propanamide]	< 10	
O=C(Nc1c2c(cc3c1CCC3)CCC2)NS(=O)(=O)c1cc(C(F)(F)F)ccn1 [N-((1,2,3,5,6,7-hexahydro-s-indacen-4-yl)carbamoyl)-4-(trifluoromethyl)pyridine-2-sulfonamide]	< 0.1	
CC(C)c1cc(Cl)cc(C(C)C)c1NC(=O)NS(=O)(=O)c1cnc2ccccc2c1 [N-((4-chloro-2,6-diisopropylphenyl)carbamoyl)quinoline-3-sulfonamide]	< 0.1	
Cc1cc(S(=O)(=O)NC(=O)Nc2c3c(cc4c2CCC4)CCC3)nn1C [N-((1,2,3,5,6,7-hexahydro-s-indacen-4-yl)carbamoyl)-1,5-dimethyl-1H-pyrazole-3-sulfonamide]	< 1	
CN(CC(=O)NCCc1ccc(S(=O)(=O)NC(=O)Nc2c3c(cc4c2CCC4)CCC3)cc1)c1ccc([N+](=O)[O-])c2nonc12 [N-(4-(N-(1,2,3,5,6,7-Hexahydros-indacen-4-ylcarbamoyl)sulfamoyl)phenethyl)-2-(methyl(7-nitrobenzo[c][1,2,5]oxadiazol-4-yl)amino)acetamide]	< 10	
CC(C)(O)c1coc(S(=O)(=O)NC(=S)Nc2c3c(cc4c2CCC4)CCC3)c1 [N-((1,2,3,5,6,7-hexahydro-s-indacen-4-yl)carbamothioyl)-4-(2-hydroxypropan-2-yl)furan-2-sulfonamide]	< 1	
O=C(Nc1c2c(cc3c1CCC3)CCC2)NS(=O)(=O)c1ccc2c(c1)S(=O)(=O)CC2 [N-((1,2,3,5,6,7-hexahydro-s-indacen-4-yl)carbamoyl)-2,3-dihydrobenzo[b]thiophene-6-sulfonamide 1,1-dioxide]	< 1	
COc1ccc2c(c1)C(=O)N(CCc1ccc(S(=O)(=O)NC(=O)NC3CCCCC3)cc1)C(=O)C2(C)C [Gliquidone, N-(cyclohexylcarbamoyl)-4-(2-(7-methoxy-4,4-dimethyl-1,3-dioxo-3,4-dihydroisoquinolin-2(1H)-yl)ethyl)benzenesulfonamide, reference compound]		32
CC(C)c1cc(Cl)cc(C(C)C)c1NC(=O)NS(=O)(=O)c1ccn(C(C)C)n1 [sodium ((4-chloro-2,6-diisopropylphenyl)carbamoyl)((1-isopropyl-1H-pyrazol-3-yl)sulfonyl)amide]	< 1	
CC(C)(O)c1coc(S(=O)(=O)NC(=O)Nc2c3c(cc4c2C(O)CC4)CCC3)c1 (stereo not drawn) [N-((3-hydroxy-1,2,3,5,6,7-hexahydro-s-indacen-4-yl)carbamoyl)-4-(2-hydroxypropan-2-yl)furan-2-sulfonamide]	< 1	
O=C(Nc1c2c(cc3c1CCC3)CCC2)NS(=O)(=O)c1ccn(C2CC2)n1 [1-cyclopropyl-N-((1,2,3,5,6,7-hexahydro-s-indacen-4-yl)carbamoyl)-1H-pyrazole-3-sulfonamide]	< 0.1	
CC(C)c1cccc(C(C)C)c1NC(=O)NS(=O)(=O)c1cc(C(F)(F)F)n(C)n1 [N-((2,6-diisopropylphenyl)carbamoyl)-1-methyl-5-(trifluoromethyl)-1H-pyrazole-3-sulfonamide]	< 10	
NC(=O)c1cccc(S(=O)(=O)NC(=O)Nc2c3c(cc4c2CCC4)CCC3)c1 [3-(N-(1,2,3,5,6,7-Hexahydro-s-indacen-4-ylcarbamoyl)sulfamoyl)benzamide]	< 1	
O=C(Nc1c2c(cc3c1CCC3)CCC2)NS(=O)(=O)c1cccc2cccnc12 [N-((1,2,3,5,6,7-hexahydro-s-indacen-4-yl)carbamoyl)quinoline-8-sulfonamide]	< 1	
CN(C)c1cccc2c(S(=O)(=O)NC(=O)Nc3c4c(cc5c3CCC5)CCC4)cccc12 [5-(dimethylamino)-N-((1,2,3,5,6,7-hexahydro-s-indacen-4-yl)carbamoyl)naphthalene-1-sulfonamide]	< 1	
